Laboratory results as given in patent US7507727B2, “Substituted quinobenzoxazine analogs and methods of using thereof” (Cylene Pharmaceuticals, Inc., priority 2003, dated 2009).
Where two headings read alike, the source gives them in different places.

How the values were obtained:
HeLa cells = experiment: MTS cell proliferation and/or cytotoxicity assay; type: cell-based, Human; details: Homo sapiens, HeLa
Method: Cell culture. Human cervical epithelial cells (HeLa cells) were obtained from American Type Culture Collection (Manassas, Va.). Cells were grown in Eagle's minimum essential medium (MEM, Hyclone, Utah) supplemented with 2 mM Glutamine, 0.1 mM nonessential amino acid, 1 mM Na Pyruvate, 1.5 g/L NaHCO3, 50 mg/L gentamicin, and 10% fetal bovine serum (Hyclone, USA) in a humidified atmosphere of 5% CO2 at 37° C.
MTS assays. Antiproliferative effects of the compounds were tested by the CellTiter 96 AQueous assay (Promega, WI), which is a calorimetric assay for determining the number of viable cells. (See, e.g., Wang, L., et al., Methods Cell Sci (1996) 18:249-255). In one example, cells (4,500 cells/well) were seeded on 96 well flat bottom plates (Corning, N.Y.) in 100 μl of culture medium without any anticancer drug on day 0, and the culture medium was exchanged for that //contained anticancer drugs at various concentrations on day 1. After incubation for 3 days under normal growth conditions (on day 4), the monolayers were washed once in PBS, and the medium was switched to 100 μl of PBS in each of the 96 well plate. After mixing MTS and PMS at the ratio of 20:1, 20 μl of MTS/PMS solution was added to each of the 96 well plate and incubated for 4 hours in a humidified atmosphere of 5% CO2 at 37° C. The absorbance was read at 490 nm using FLUOstar Galaxy 96 well plate reader (BMG Labtechnologies, Germany). μM concentrations (MTS data) reported in Table 1 are concentrations at which 50% of antiproliferative cell response is seen.

[1] = target: c-Myc template DNA (c-myc quadruplex); experiment: Quadruplex binding / stop assay (Taq polymerase arrest, capillary electrophoresis)
[2] = 72 h, concentration at which 50% of antiproliferative cell response is seen, 3 days incubation, read-out: MTS Data Hella
[3] = read-out: Stop Data c-Myc μM, concentration at which 50% of the DNA was arrested (arrested:full-length 1:1)
[4] = HeLa cells, MTS, read-out: Hela MTS
[5] = read-out: S DATA, Table 1D, stop assay data

Row | IC50 [1, 3] | IC50 [1, 5] | SMILES | IC50 (HeLa cells; [2]) | IC50 (HeLa cells; [4])
1 | 0.5 µM |  | CN(C)CCCCNC(=O)c1cn2c3cc4c(cc3oc3c(N5CC[C@H](NC(=O)OC(C)(C)C)C5)c(F)cc(c1=O)c32)c(=O)c1ccccc14 [compound 480] | 3.7 µM | 
2 | 0.41 µM |  | CN(C)CCCCNc1c(F)cc2c(=O)c(C(=O)NCCC3CCCN3C)cn3c2c1Oc1c-3ccc2ccccc12 (stereo not drawn) [compound 496] | 4 µM | 
3 | 0.375 µM |  | CN1CCCC1CCNC(=O)c1cn2c3c(c(NCCCN(CCO)CCO)c(F)cc3c1=O)Oc1cc3ccccc3cc1-2 (stereo not drawn) [compound 534] | 0.4 µM | 
4 | 1.75 µM |  | Nc1c(F)c(N2CCC(N)C2)c2c3c1c(=O)c(C(=O)O)cn3-c1cc3ccccc3cc1O2 (stereo not drawn) [compound 5] | 7.2 µM | 
5 | 0.75 µM |  | CN(C)CCCCNC(=O)c1cn2c3c(c(NCCCCN(C)C)c(F)cc3c1=O)Oc1cc3c(cc1-2)oc1ccccc13 [compound 367] | 3.7 µM | 
6 | 1 µM |  | O=C(CCN1CCCCC1)N[C@@H]1CCN(c2c(F)cc3c(=O)c(C(=O)NCCN4CCCC4)cn4c3c2Oc2cc3c(cc2-4)oc2ccccc23)C1 [compound 308] | 3.1 µM | 
7 |  | 0.375 µM | CN1CCCC1CCNC(=O)c1cn2c3c(c(N4CCC(CCCC5CCNCC5)CC4)c(F)cc3c1=O)Oc1cc3ccccc3cc1-2 (stereo not drawn) [compound 1494] |  | 0.31 µM
8 |  | 0.375 µM | CN(C)CC(C)(C)CNC(=O)c1cn2c3c(c(N4CC5CCCNC5C4)c(F)cc3c1=O)Oc1cc3ccccc3cc1-2 (stereo not drawn) [compound 1644] |  | 0.65 µM
9 | 0.55 µM |  | O=C(NCCN1CCCC1)c1cn2c3c(c(NCCN4CCCC4)c(F)cc3c1=O)Oc1cc3c(cc1-2)oc1ccccc13 [compound 477] | 2.1 µM | 
10 | 0.75 µM |  | CN1CCN(CCCNc2c(F)cc3c(=O)c(C(=O)NCCC4CCCN4C)cn4c3c2Oc2cc3c(cc2-4)oc2ccccc23)CC1 (stereo not drawn) [compound 363] | 3.8 µM | 
11 | 1.75 µM |  | O=C(NCCN1CCCC1)c1cn2c3c(c(NCCCN4CCOCC4)c(F)cc3c1=O)Oc1cc3c(O)ncnc3cc1-2 [compound 107] | 1.8 µM | 
12 | 0.375 µM |  | O=C(NCCN1CCCC1)c1cn2c3c(c(N4CC5CCCNC5C4)c(F)cc3c1=O)Oc1cc3ccccc3cc1-2 (stereo not drawn) [compound 545] | 0.15 µM | 
13 | 0.75 µM |  | O=C(NCCCn1ccnc1)c1cn2c3c(c(NCCN4CCCC4)c(F)cc3c1=O)Oc1cc3c(cc1-2)oc1ccccc13 [compound 368] | 3.6 µM | 
14 | 1.75 µM |  | CN(C)CCCCNC(=O)c1cn2c3c(c(N4CC[C@H](N)C4)c(F)cc3c1=O)Oc1ccccc1-2 [compound 108] | 0.46 µM | 
15 | 3 µM |  | O=C(NCCN1CCCC1)c1cn2c3c(c(N4CCC(c5cnccn5)C4)ccc3c1=O)Oc1ccccc1-2 (stereo not drawn) [compound 30] | 1.8 µM | 
16 | 0.375 µM |  | CN(C)CCCCNc1c(F)cc2c(=O)c(C(=O)NCCN3CCCC3)cn3c4cc5c(cc4oc1c23)c(=O)c1ccccc15 [compound 515] | 2.5 µM | 
17 | 0.75 µM |  | CN(C)CCCCNC(=O)c1cn2c3c(c(N4CC[C@@H](NC(=O)CCN5CCN(C)CC5)C4)c(F)cc3c1=O)Oc1cc3c(cc1-2)oc1ccccc13 [compound 357] | 8.6 µM | 
18 | 0.75 µM |  | CN1CCCC1CCNC(=O)c1cn2c3c(c(NCC(O)c4ccccc4)c(F)cc3c1=O)Oc1cc3ccccc3cc1-2 (stereo not drawn) [compound 392] | 0.19 µM | 
19 | 0.18 µM |  | CN1CCCC1CCNC(=O)c1cn2c3cc4oc5cc([N+](=O)[O-])ccc5[nH]c4cc3oc3c(NCCC4CCCN4C)c(F)cc(c1=O)c32 (stereo not drawn) [compound 572] | 4.8 µM | 
20 | 0.5 µM |  | NCCCNC(=O)c1cn2c3c(c(N4CC[C@@H](N)C4)c(F)cc3c1=O)Oc1cc3ccccc3cc1-2 [compound 485] | 0.5 µM | 
21 | 3 µM |  | CN1CCCC1CCNC(=O)c1cn2c3c(c(N4CC[C@H](N)C4)c(F)cc3c1=O)Oc1ccccc1-2 (stereo partly drawn) [compound 36] | 0.16 µM | 
22 | 0.18 µM |  | N[C@H]1CCN(c2c(F)cc3c(=O)c(C(=O)NCCN4CCOCC4)cn4c5cc6c(cc5oc2c34)c(=O)c2ccccc26)C1 [compound 579] | 0.49 µM | 
23 | 1 µM |  | COc1ccc(CCNc2c(F)cc3c(=O)c(C(=O)NCCC4CCCN4C)cn4c3c2Oc2cc3ccccc3cc2-4)cc1OC (stereo not drawn) [compound 310] | 2.3 µM | 
24 | 0.375 µM |  | CN1CCCC1CCNC(=O)c1cn2c3cc4c(cc3oc3c(NCCC5CCCN5C)c(F)cc(c1=O)c32)c(=O)c1ccccc14 (stereo not drawn) [compound 514] | 2.9 µM | 
25 | 0.375 µM |  | CN1CCCC1CCNC(=O)c1cn2c3c(c(NCCc4c[nH]cn4)c(F)cc3c1=O)Oc1cc3ccccc3cc1-2 (stereo not drawn) [compound 1468] | 0.35 µM | 

Row | IC50 [1, 3] | IC50 [1, 5] | SMILES | IC50 (HeLa cells; [2]) | IC50 (HeLa cells; [4])
26 | 0.375 µM |  | CN(C)CCCCNC(=O)c1cn2c3c(c(N4CC[C@@H](NC(=O)CCN5CCCC5)C4)c(F)cc3c1=O)Oc1cc3c(cc1-2)oc1ccccc13 [compound 510] | 3.1 µM | 
27 |  | 0.75 µM | CN1CCCC1CCNC(=O)c1cn2c3c(c(NCC(O)c4ccccc4)c(F)cc3c1=O)Oc1cc3ccccc3cc1-2 (stereo not drawn) [compound 1676] |  | 0.19 µM
28 | 0.375 µM |  | CN(C)CCCCNc1c(F)cc2c(=O)c(C(=O)NCCCn3ccnc3)cn3c2c1Oc1cc2c(cc1-3)oc1ccccc12 [compound 509] | 3.1 µM | 
29 | 1.75 µM |  | CCN(CC)CCCC(C)NC(=O)c1cn2c3c(c(N4CCC(NC(=O)OC(C)(C)C)C4)c(F)cc3c1=O)Oc1cc3ccccc3cc1-2 (stereo not drawn) [compound 241] |  | 
30 | 1 µM |  | CN1CCCC1CCNC(=O)c1cn2c3c(c(NC4CCS(=O)(=O)C4)c(F)cc3c1=O)Oc1cc3ccccc3cc1-2 (stereo not drawn) [compound 338] |  | 
31 | 0.75 µM |  | CN1CCCC1CCNC(=O)c1cn2c3c(c(NCCN4CCCC4)ccc3c1=O)Oc1cc3ccccc3cc1-2 (stereo not drawn) [compound 446] |  | 
32 | 0.75 µM |  | CN(C)CCCCNC(=O)c1cn2c3c(c(NCCC4CCCN4C)ccc3c1=O)Oc1cc3ccccc3cc1-2 (stereo not drawn) [compound 450] |  | 
33 |  | 1.75 µM | O=C(NCCN1CCCC1)c1cn2c3c(c(NCCCN4CCOCC4)ccc3c1=O)Oc1cc3ccccc3cc1-2 [compound 1528] |  | 
34 |  | > 15 µM | O=C(NCCN1CCOCC1)c1cn2c3c(c(NCCCN4CCOCC4)ccc3c1=O)Oc1cc3ccccc3cc1-2 [compound 1533] |  | 
35 | 0.9 µM |  | CN1CCN(CCCNC(=O)c2cn3c4cc5c(=O)c6ccccc6c(=O)c5cc4oc4c(NCCCN5CCN(C)CC5)c(F)cc(c2=O)c43)CC1 [compound 350] |  | 
36 | 1.75 µM |  | CN(C)CCCCNC(=O)c1cn2c3c(c(N4CCC(NC(=O)OC(C)(C)C)C4)c(F)cc3c1=O)Oc1cc3c(cc1-2)oc1ccccc13 (stereo not drawn) [compound 155] |  | 
37 |  | 0.75 µM | CN1CCN(CCCNc2ccc3c(=O)c(C(=O)NCCN4CCCC4)cn4c3c2Oc2cc3ccccc3cc2-4)CC1 [compound 1552] |  | 
38 | 1.75 µM |  | CN1CCCC1CCNC(=O)c1cn2c3cc4c(=O)c5ccccc5c(=O)c4cc3oc3c(N4CCC(NC(=O)OC(C)(C)C)C4)c(F)cc(c1=O)c32 (stereo not drawn) [compound 168] |  | 
39 |  | > 15 µM | CC(C)(C)OC(=O)NC1CCN(c2ccc3c(=O)c(C(=O)NCCN4CCCC4)cn4c3c2Oc2cc3ccccc3cc2-4)C1 (stereo not drawn) [compound 1534] |  | 
40 |  | > 15 µM | CN1CCN(CCCNc2c(F)cc3c(=O)c(C(=O)N4CCC(NC(=O)OC(C)(C)C)C4)cn4c3c2Oc2ccccc2-4)CC1 (stereo not drawn) [compound 1575] |  | 
41 | 2.5 µM |  | NCc1cn2c3c(c(N4CCC(N)C4)c(F)cc3c1=O)Oc1cc3ccccc3cc1-2 (stereo not drawn) [compound 99] |  | 
42 | 1.75 µM |  | CC(=O)N[C@@H]1CCN(c2c(F)cc3c(=O)c(C(=O)NCCCN4CCN(C)CC4)cn4c3c2Oc2cc3c(cc2-4)oc2ccccc23)C1 [compound 179] |  | 
43 |  | > 15 µM | CC(C)(C)OC(=O)NC1CCN(C(=O)c2cn3c4c(c(N5CCC(NC(=O)OC(C)(C)C)C5)c(F)cc4c2=O)Oc2ccccc2-3)C1 (stereo not drawn) [compound 1586] |  | 
44 | 2.5 µM |  | CN1CCCC1CCNC(=O)c1cn2c3c(c(NCCN4CCCC4)c(F)cc3c1=O)Oc1cc3ccccc3cc1-2 (stereo not drawn) [compound 73] |  | 
45 | 1.75 µM |  | O=C(NCCCN1CCOCC1)c1cn2c3c(c(NCCCN4CCOCC4)c(F)cc3c1=O)Oc1cc3c(cc1-2)oc1ccccc13 [compound 143] |  | 
46 |  | > 15 µM | CC(C)C(CO)Nc1c(F)cc2c(=O)c(C(=O)NCCC3CCCN3C)cn3c2c1Oc1cc2ccccc2cc1-3 (stereo not drawn) [compound 1747] |  | 
47 |  | > 15 µM | CC(C)(C)OC(=O)NC1CCN(C(=O)c2cn3c4c(c(NCCN5CCCC5)c(F)cc4c2=O)Oc2ccccc2-3)C1 (stereo not drawn) [compound 1595] |  | 
48 | 0.62 µM |  | CN(C)CCCCNC(=O)c1cn2c3c(c(NCCN4CCCC4)c(F)cc3c1=O)Oc1c-2ccc2ccccc12 [compound 473] |  | 
49 | 0.75 µM |  | CC(C)(C)OC(=O)N[C@@H]1CCN(c2c(F)cc3c(=O)c(C(=O)NCCCN=C(N)N)cn4c3c2Oc2cc3ccccc3cc2-4)C1 [compound 429] |  | 
50 | 0.45 µM |  | CN1CCN(CCCNc2c(F)cc3c(=O)c(C(=O)NCCCN4CCOCC4)cn4c5cc6c(=O)c7ccccc7c(=O)c6cc5oc2c34)CC1 [compound 492] |  | 
